{"source": "paper PMC8370248", "about": "“Key Metabolic Enzymes Involved in Remdesivir Activation in Human Lung Cells” (Antimicrobial Agents and Chemotherapy, 2021)", "key": {"SARS-CoV-2": {"test_system": "SARS-CoV-2", "test": "microbe, parasite or virus in culture", "format": "cell-based"}, "CES1c": {"target": "T1, CES1c (Homo sapiens, UniProt P23141)", "T1 construct": "purchased Corning Incorporated (Corning, NY); host or cells: baculovirus-infected insect cells (microsomal fraction, Supersomes)", "T1 sequence (P23141 18-566 isoform P23141-3 limits assumed)": "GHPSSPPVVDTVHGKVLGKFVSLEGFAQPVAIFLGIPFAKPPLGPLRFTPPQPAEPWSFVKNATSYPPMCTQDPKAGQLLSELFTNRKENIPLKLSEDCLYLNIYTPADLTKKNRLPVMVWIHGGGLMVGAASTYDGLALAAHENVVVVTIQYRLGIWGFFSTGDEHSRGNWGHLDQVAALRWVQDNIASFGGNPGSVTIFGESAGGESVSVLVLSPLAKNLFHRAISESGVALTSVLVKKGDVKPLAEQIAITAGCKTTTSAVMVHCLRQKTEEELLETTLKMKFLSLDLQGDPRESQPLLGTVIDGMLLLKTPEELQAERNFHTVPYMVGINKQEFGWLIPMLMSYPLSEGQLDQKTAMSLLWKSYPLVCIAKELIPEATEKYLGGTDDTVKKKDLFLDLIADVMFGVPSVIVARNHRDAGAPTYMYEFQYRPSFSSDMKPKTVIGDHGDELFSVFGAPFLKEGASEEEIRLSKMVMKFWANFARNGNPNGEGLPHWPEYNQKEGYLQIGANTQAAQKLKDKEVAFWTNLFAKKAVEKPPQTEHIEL", "test": "CES1c-catalyzed hydrolysis of RDV and control (substrate disappearance, LC-MS)", "format": "in vitro ADME", "protocol": "(§1) The catalytic activity of carboxylesterase 1b (CES1b), carboxylesterase 1c (CES1c), CES2, and CatA toward RDV hydrolysis was measured using protein-enriched subcellular fraction (CES isozymes) or recombinant proteins (CatA). The reaction rates were determined by monitoring the disappearance of RDV using a liquid chromatography-mass spectrometry (LC-MS) method.\n(§2) RDV or positive-control substrates (oseltamivir for CES1 or procaine for CES2) were incubated with individual Supersome preparations (final CES concentration, 1.5 mg/ml) in 0.1 M potassium phosphate buffer (pH 7.4) at 37°C. Substrates were added to a final concentration of 1 μM to initiate the reaction. The final incubation volume was 250 μl. Aliquots were removed after incubation for 0, 10, 30, 60, and 120 min. The reactions were stopped by the addition of the quench solution containing the LC-MS internal standard (IS) (labetalol). Following protein precipitation and centrifugation, 150 μl of supernatant was dried down and reconstituted with 250 μl water. All samples were analyzed by an LC-MS, and the analyte/internal standard peak area ratio (PAR) values were used for quantification. Disappearance of RDV or positive-control compounds was monitored over the incubation time period. Three experiments were conducted with two replicates in each experiment, and data are reported as averages from the three experiments.\n(§3) In all studies apart from those with CES1 and CatA with enzyme inhibitors, samples (10-μl aliquots) were injected with a Thermo Scientific autosampler. The LC instrumentation consisted of a Thermo Scientific Dionex UltiMate 3000 RS pump, and the LC column was a Waters Acquity UPLC BEH C18 (1.7 μm particle size, 2.1 by 50 mm). Mobile phases A and B were water 99.9% (vol/vol) containing 0.1% (vol/vol) formic acid, and acetonitrile 99.9% (vol/vol) containing 0.1% (vol/vol) formic acid, respectively, pumped at 0.2 ml/minute. Elution was achieved by a series of linear gradients over 2.33 min followed by reequilibration for 2.57 min. The MS instrument was a Thermo Q Exactive Hybrid Quadrupole-Orbitrap operating in positive or negative ionization mode as appropriate. This was calibrated on a weekly basis, and data were processed with GMSU 8.4.66 software by Gubbs Inc. (Alpharetta, GA). Mass tolerance of 5 ppm was used."}, "CatA": {"target": "T2, CatA (Homo sapiens, UniProt P10619)", "T2 sequence (P10619 29-326 limits assumed)": "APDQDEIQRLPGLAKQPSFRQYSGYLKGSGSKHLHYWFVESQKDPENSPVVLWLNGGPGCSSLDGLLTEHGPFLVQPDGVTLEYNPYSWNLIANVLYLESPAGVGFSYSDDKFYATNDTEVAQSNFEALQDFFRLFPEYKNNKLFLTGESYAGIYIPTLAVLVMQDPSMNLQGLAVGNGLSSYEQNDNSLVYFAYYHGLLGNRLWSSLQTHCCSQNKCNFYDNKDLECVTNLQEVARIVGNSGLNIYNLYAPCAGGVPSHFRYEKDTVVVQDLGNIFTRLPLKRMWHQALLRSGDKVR", "T2 sequence (P10619 327-480 limits assumed)": "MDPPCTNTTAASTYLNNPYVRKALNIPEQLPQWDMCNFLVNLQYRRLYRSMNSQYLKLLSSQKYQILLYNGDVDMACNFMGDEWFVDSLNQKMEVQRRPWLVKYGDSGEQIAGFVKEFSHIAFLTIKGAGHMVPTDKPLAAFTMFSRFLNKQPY", "test": "CatA-catalyzed hydrolysis of RDV and control (substrate disappearance, LC-MS)", "protocol": "as §1\nFollowing protein precipitation and centrifugation, 150 μl of supernatant was dried down and reconstituted with 250 μl water. […] Three experiments were conducted with two replicates in each experiment, and data are reported as averages from the three experiments.\nas §3"}, "CES1b": {"target": "T3, CES1b (Homo sapiens, UniProt P23141)", "T3 construct": "purchased Corning Incorporated (Corning, NY); host or cells: baculovirus-infected insect cells (microsomal fraction, Supersomes)", "T3 sequence (P23141 18-567)": "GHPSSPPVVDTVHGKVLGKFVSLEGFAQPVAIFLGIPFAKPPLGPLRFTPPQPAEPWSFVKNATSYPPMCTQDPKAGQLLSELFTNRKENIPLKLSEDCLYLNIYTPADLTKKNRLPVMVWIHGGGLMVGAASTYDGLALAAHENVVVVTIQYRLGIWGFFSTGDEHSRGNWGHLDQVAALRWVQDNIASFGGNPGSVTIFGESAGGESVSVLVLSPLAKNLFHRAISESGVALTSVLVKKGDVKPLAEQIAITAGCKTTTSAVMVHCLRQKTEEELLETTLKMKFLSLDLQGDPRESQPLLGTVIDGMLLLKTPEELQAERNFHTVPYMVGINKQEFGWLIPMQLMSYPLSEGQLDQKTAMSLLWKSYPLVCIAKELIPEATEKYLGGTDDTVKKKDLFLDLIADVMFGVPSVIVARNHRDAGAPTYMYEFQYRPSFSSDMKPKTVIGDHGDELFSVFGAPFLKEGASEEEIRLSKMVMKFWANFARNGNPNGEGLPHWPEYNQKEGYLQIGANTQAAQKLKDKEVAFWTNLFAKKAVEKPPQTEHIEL", "test": "CES1b-catalyzed hydrolysis of RDV and control (substrate disappearance, LC-MS)", "format": "in vitro ADME", "protocol": "as §1, §2, §3"}, "[1]": {"settings": "times faster than positive control oseltamivir"}}, "note": "Values joined by “and” are separate entries in the source; they are usually repeats but may differ in a detail not shown here. Identical values can stand only once.", "data": [{"smiles": "CCC(CC)COC(=O)[C@H](C)N[P@](=O)(OC[C@H]1O[C@@](C#N)(c2ccc3c(N)ncnn23)[C@H](O)[C@@H]1O)Oc1ccccc1", "note": "[RDV, Remdesivir]", "values": [{"measurement": "Fold-RDV EC50, RDV + 0.5 μM telaprevir", "setting": "SARS-CoV-2; EC50 of combination divided by EC50 of RDV (plus DMSO), 0.5 μM telaprevir", "result": "1.70 ± 0.19"}, {"measurement": "Fold-RDV EC50, RDV + 2.5 μM telaprevir", "setting": "SARS-CoV-2; EC50 of combination divided by EC50 of RDV (plus DMSO), 2.5 μM telaprevir", "result": "2.27 ± 0.25"}, {"measurement": "Fold-RDV EC50, RDV + 10 μM telaprevir", "setting": "SARS-CoV-2; EC50 of combination divided by EC50 of RDV (plus DMSO), 10 μM telaprevir", "result": "2.9 and 2.91 ± 0.65"}, {"measurement": "EC50", "setting": "SARS-CoV-2; Severe acute respiratory syndrome coronavirus 2, 48 h, compound alone (plus DMSO), A549-hACE2 cells, 48 h", "result": "~99", "unit": "nM"}, {"measurement": "half-life at 1 μM", "setting": "CES1c; human, CES1c Supersomes (protein-enriched subcellular fraction), 1 μM substrate, CES 1.5 mg/ml, pH 7.4, 37°C, read-out: t1/2, CES1c (converted)", "result": 7.7, "unit": "min"}, {"measurement": "CES1c hydrolysis rate relative to oseltamivir", "setting": "CES1c; [1]", "result": 4, "unit": "times"}, {"measurement": "Activity for amidate ester cleavage, CatA", "setting": "CatA; 1 μM substrate, 5 nM CatA, pH 6.5, 37°C", "result": "74 ± 32", "unit": "nmol/min/mg"}, {"measurement": "CatA hydrolysis rate relative to TAF", "setting": "CatA; fold lower than hydrolysis rate of TAF", "result": 3.4, "unit": "fold"}, {"measurement": "half-life at 1 μM", "setting": "CatA; human, recombinant CatA (activated with CatL), pH 6.5", "result": 43, "unit": "min"}, {"measurement": "half-life at 1 μM", "setting": "CES1b; human, CES1b Supersomes (protein-enriched subcellular fraction), 1 μM substrate, CES 1.5 mg/ml, pH 7.4, 37°C, read-out: t1/2, CES1b (converted)", "result": 9.7, "unit": "min"}, {"measurement": "CES1b hydrolysis rate relative to oseltamivir", "setting": "CES1b; [1]", "result": 2, "unit": "times"}]}]}
